The values that follow come from publication PMC7238241, “Lack of Correlation between In Vitro and In Vivo Studies on the Inhibitory Effects of (‒)-Sophoranone on CYP2C9 Is Attributable to Low Oral Absorption and Extensive Plasma Protein Binding of (‒)-Sophoranone” (Pharmaceutics, 2020).

Like-named read-outs stand apart in the source and are kept apart here.

In one data set the target is T1, CYP2A6 (Homo sapiens, UniProt P11509).
T1 construct: tissue Corning Life Sciences; host or cells: pooled human liver microsomes, 150 donors
T1 sequence (P11509 1-494): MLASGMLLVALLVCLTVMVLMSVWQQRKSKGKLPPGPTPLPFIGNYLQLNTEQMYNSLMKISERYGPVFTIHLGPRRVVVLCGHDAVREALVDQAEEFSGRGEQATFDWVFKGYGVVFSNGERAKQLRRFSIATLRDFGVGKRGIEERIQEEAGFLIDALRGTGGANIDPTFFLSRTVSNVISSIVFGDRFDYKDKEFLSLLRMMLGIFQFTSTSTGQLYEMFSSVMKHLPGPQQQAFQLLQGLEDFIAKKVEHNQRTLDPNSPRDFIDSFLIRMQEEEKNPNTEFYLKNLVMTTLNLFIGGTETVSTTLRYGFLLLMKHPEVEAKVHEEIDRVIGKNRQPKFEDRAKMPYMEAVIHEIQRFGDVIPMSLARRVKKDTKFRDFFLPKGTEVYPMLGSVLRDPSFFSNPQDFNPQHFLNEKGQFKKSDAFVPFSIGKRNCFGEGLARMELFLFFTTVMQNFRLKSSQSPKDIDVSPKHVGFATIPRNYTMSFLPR
Briefly: Reversible CYP2A6 inhibition, cocktail assay (coumarin 7-hydroxylase) in human liver microsomes. Type of data set: biochemical. As to the method: (§1) The inhibitory effects of SPN on CYP1A2, CYP2A6, CYP2B6, CYP2C8, CYP2C9, CYP2C19, CYP2D6, CYP2E1, and CYP3A4 were evaluated in pooled human liver microsomes through the use of specific CYP probe substrates (cocktail assay), as previously described with a slight modification. Concentrations of each CYP probe in Table 1 were used close to their reported Km values.
Briefly, a 90-µL incubation mixture, including pooled human liver microsomes (final concentration 0.1 mg/mL), 50 mM phosphate buffer (pH 7.4), each CYP-probe substrate cocktail set, and SPN (0–50 μM), was pre-incubated for 5 min at 37 °C. SPN was dissolved in methanol and spiked into the incubation mixture to a final concentration of 0.5% methanol. All P450-selective substrates (except coumarin due to solubility) were dissolved in methanol and serially diluted with methanol to the required concentrations, and the organic solvent was subsequently evaporated under a gentle stream of N2 gas to minimize the effects of organic solvents on CYP activities. On the other hand, coumarin dissolved in 50 mM phosphate buffer (pH 7.4) was directly added into the mixed tube. The reaction was initiated by adding 10-µL aliquot of NADPH-generating system (1.3 mM NADP^+, 3.3 mM glucose 6-phosphate, 3.3 mM MgCl2, and 0.4 unit/mL glucose-6-phosphate dehydrogenase) before 15 min incubation at 37 °C in a shaking water bath. […]
(§2) The IC50 values were calculated via nonlinear least-squares regression analysis from logarithmic plots of inhibitor concentration versus percentage of activity remaining after inhibition, using SigmaPlot (ver. 14.0; Systat Software Inc, Chicago, IL, USA). The Ki values were determined from the equations for a single substrate single inhibitor model and the software available in the SigmaPlot Enzyme Kinetics module. Competitive, non-competitive, uncompetitive, or mixed inhibition models were evaluated and ranked according to the best fit based on Akaike Information Criterion (AIC) values. […]
Background: Liver microsomes are vesicles of endoplasmic reticulum, rich in cytochrome P450 enzymes.

Data set [1] deals with T2, CYP3A4 (Homo sapiens, UniProt P08684).
T2 construct: tissue Corning Life Sciences; host or cells: pooled human liver microsomes, 150 donors
Briefly: Reversible CYP3A4 inhibition, cocktail assay (midazolam 1′-hydroxylase) in human liver microsomes. As to conditions: midazolam probe. Type of data set: biochemical. As for the experimental part:
as §1
Briefly, a 90-µL incubation mixture, including pooled human liver microsomes (final concentration 0.1 mg/mL), 50 mM phosphate buffer (pH 7.4), each CYP-probe substrate cocktail set, and SPN (0–50 μM), was pre-incubated for 5 min at 37 °C. SPN was dissolved in methanol and spiked into the incubation mixture to a final concentration of 0.5% methanol. […]
as §2

Data set [2] addresses T3, CYP2C9 (Homo sapiens, UniProt P11712).
T3 construct: tissue Corning Life Sciences; host or cells: pooled human liver microsomes, 150 donors
Briefly: Inhibition of other CYP2C9-specific pathways (diclofenac 4′-hydroxylation, losartan oxidation) in human liver microsomes. The data set is classed as biochemical. As to the method: The auto-optimized mass transitions were m/z 312 > 231 and m/z 437 > 207.1 for quantification of 4′-hydroxydiclofenac and losartan carboxylic acid, respectively. HPLC conditions were the same as those in the cocktail assay.
(§3) The IC50 values were calculated via nonlinear least-squares regression analysis from logarithmic plots of inhibitor concentration versus percentage of activity remaining after inhibition, using SigmaPlot (ver. 14.0; Systat Software Inc, Chicago, IL, USA). The Ki values were determined from the equations for a single substrate single inhibitor model and the software available in the SigmaPlot Enzyme Kinetics module. Competitive, non-competitive, uncompetitive, or mixed inhibition models were evaluated and ranked according to the best fit based on Akaike Information Criterion (AIC) values. For visual inspection, the data were presented as Dixon plots.

The target of data set [3] is T3, CYP2C9. Briefly: Determination of Ki and inhibition type on CYP2C9 activity in human liver microsomes. The data set is classed as biochemical. The note with it: for Ki: human liver microsomes, n = 3. As to the method:
Based on the IC50 values, the Ki values of SPN on CYP2C9 activity were determined. […] Other procedures were similar to those of the reversible inhibition studies. All incubations were performed in triplicate, and the data are shown as the mean ± standard deviation.
as §3

Data set [4] relates to CYP3A4. Also noted: method as in PMID 29753067. As to conditions: cited from earlier work.
Details of data set [5]: method as in PMID 26068519. As to conditions: rats, oral 12.9 mg/kg SPN; cited from earlier work.
Where [6] appears, read: at the highest tested concentration (50 μM).

T3 sequence (P11712 whole entry): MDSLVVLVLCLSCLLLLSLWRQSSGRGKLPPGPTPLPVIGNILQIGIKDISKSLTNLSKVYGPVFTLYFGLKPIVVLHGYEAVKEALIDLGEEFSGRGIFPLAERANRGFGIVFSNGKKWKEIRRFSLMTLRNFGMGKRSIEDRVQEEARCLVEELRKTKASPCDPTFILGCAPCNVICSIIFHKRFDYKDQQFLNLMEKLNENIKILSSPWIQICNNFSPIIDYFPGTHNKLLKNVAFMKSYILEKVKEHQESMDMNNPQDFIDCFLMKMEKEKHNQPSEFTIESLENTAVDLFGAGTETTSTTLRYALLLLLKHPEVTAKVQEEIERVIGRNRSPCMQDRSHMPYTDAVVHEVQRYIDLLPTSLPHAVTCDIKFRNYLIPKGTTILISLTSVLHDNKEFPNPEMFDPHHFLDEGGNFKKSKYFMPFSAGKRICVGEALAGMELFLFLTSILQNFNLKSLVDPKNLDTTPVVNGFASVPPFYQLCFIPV
T2 sequence (P08684 whole entry): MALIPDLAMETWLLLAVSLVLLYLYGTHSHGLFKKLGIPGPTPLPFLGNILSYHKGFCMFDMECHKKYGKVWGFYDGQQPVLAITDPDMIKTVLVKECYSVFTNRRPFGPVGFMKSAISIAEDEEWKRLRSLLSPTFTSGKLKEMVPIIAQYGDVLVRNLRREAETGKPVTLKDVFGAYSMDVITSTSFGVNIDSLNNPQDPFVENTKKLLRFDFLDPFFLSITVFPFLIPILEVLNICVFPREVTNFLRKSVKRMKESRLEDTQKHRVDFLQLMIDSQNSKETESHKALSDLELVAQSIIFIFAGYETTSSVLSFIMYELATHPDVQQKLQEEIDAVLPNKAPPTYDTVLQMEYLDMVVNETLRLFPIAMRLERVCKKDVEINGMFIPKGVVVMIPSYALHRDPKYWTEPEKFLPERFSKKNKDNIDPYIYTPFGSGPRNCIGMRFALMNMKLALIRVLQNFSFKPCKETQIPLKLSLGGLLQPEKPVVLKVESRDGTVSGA

On to `CC(C)=CCc1cc([C@@H]2CC(=O)c3ccc(O)c(CC=C(C)C)c3O2)cc(CC=C(C)C)c1O` [SPN, (‒)-Sophoranone], for which the “residual enzyme activity, CYP2A6” value on CYP2A6 (setting [6]) was “greater than 80%”. The half-inhibitory concentration (IC50) – broadly, the concentration needed to halve the response being measured – at CYP2A6 (human liver microsomes 0.1 mg/mL, cocktail assay, coumarin probe, n = 3, read-out: IC50 Values, CYP2A6) was more than 50000 nM; against CYP3A4 [1] (human liver microsomes 0.1 mg/mL, cocktail assay, n = 3), more than 50000 nM; against CYP2C9 [2] (IC50, CYP2C9-catalyzed diclofenac 4′-hydroxylation, diclofenac 5 μM) it was 879 ± 88.8 nM; on CYP2C9 [2] (losartan 5 μM, read-out: IC50, CYP2C9-catalyzed losartan oxidation) it was 455 ± 48.6 nM; in the data set on CYP3A4 [4] (range over other CYP3A4 substrates), 5620 to 38400 nM. The “residual enzyme activity, CYP3A4” value on CYP3A4 [1] (setting [6]) amounted to 53.3 ± 4.00%. Moreover, the Ki (as a rule, the dissociation constant of the complex between target and ligand, obtained from inhibition or displacement) at CYP2C9 [3] (Ki values, CYP2C9 probe diclofenac, diclofenac 2, 5, and 10 µM) is 587 ± 47 nM; at CYP2C9 [3] (tolbutamide 50, 100, and 150 µM, read-out: Ki values, CYP2C9 probe tolbutamide) it was 503 ± 38.3 nM; in the data set with CYP3A4 [4] (read-out: Ki, CYP3A4-catalyzed bufalin 5′-hydroxylation) it was 2170 ± 290 nM. On CYP2C9 [3] (best fit based on AIC values), the “Mode of inhibition, CYP2C9 probe diclofenac” value was “Competitive”. In addition, on CYP2C9 [3] (best fit based on AIC values), the “Mode of inhibition, CYP2C9 probe tolbutamide” value is “Competitive”. In addition, in data set [5], the “maximum plasma concentration (Cmax)” value is “approximately 13.1 ng/mL”.
